Reference: patent US20240269104A1, “METHOD FOR TREATING PARKINSON'S DISEASE” (Olatec Therapeutics, Inc., priority 2021, published 2024)

Key:
Type in all cases: in vivo, mice
IL-17A = IL-17A in brain homogenates by ELISA after MPTP; conditions: 200 mg/kg once each day; seven days after MPTP-acute; MPTP+saline 58 pg/μg
Description: It has been reported that administration of MPTP induces the assembly of NLPR3 inflammasome in the brain. Mice were sacrificed after anesthesia by cervical dislocation at 4 and 7 days after MPTP administration. Brains were collected, and the striatum (St) and ventral midbrain (VM) areas of both hemispheres were excised and frozen in liquid nitrogen. Samples were homogenized in RIPA buffer (Thermo Fisher, Waltham, MA) supplemented with protease inhibitor (Thermo Fisher) using a TissueRuptor (Qiagen, Germantown, MD). Protein concentration was determined using a BCA Protein Assay Kit (Thermo Fisher) according to manufacturer's instructions. Samples were diluted to 2 mg/ml in the same extraction buffer.
Levels of IL-1β, IL-18, IL-6, and IL-17A from brain homogenates were measured by ELISA DuoSet kit (R&D Systems, Minneapolis, MN). ELISA kit for IL-1β detects 92-95% of the 17 kDa form and only 8-5% of the precursor form of this cytokine. 96-well plates (ThermoFisher Scientific) were coated with capture antibody. Samples were incubated for two hours at room temperature. Detection antibodies and streptavidin-HRP were added. TMB ELISA (cBioscience, San Diego, CA) was used as substrate solution. Results were measured in a microplate reader (Bio-Tek, Santa Clara, CA). Final values were normalized by the protein concentration of each sample. 4-5 mice per group were used for each cytokine.

α-synuclein = α-synuclein Western blot in the ventral midbrain after MPTP-subacute administration; conditions: 200 mg/kg for 6 days, 24 hours after last MPTP injection
Protocol: MPTP (Sigma-Aldrich, St. Louis, MO) can be administered at two dose regimens: acute and sub-acute. For the acute regimen, MPTP was administered intraperitoneally (i.p.) four times in one day. Administrations were performed every two hours over an eight-hour period. For the subacute regimen, mice received a single i.p. administration of MPTP per day for five consecutive days. A 20 mg/kg free-base MPTP dose was used for every dose in both models. Sterile saline was used as the vehicle. Control mice were injected with saline solution using the same administration protocol and were defined as sham. Mice were sacrificed at different days after the first injection of MPTP. We used the acute protocol in C56BL/J mice to study dopamine neurodegeneration, inflammation, and motor deficits, whereas the subacute model was used to evaluate α-synuclein aggregation in the following examples.
Since MPTP promotes α-synuclein aggregation after subacute regimen, we evaluated the effect of dapansutrile on the levels of this protein. 24 hours after the last injection of MPTP, mice were sacrificed. The VM was excised, and proteins were resolved as described in Example 9. VM was selected as the region to evaluate α-synuclein accumulation according to previous publications. […] The levels of α-synuclein were determined by Western blot. […]

dopaminergic neurons = experiment: tyrosine hydroxylase (TH) immunostaining of the nigrostriatal pathway after MPTP; conditions: 200 mg/kg for 7 days; seven days after MPTP-acute
Protocol: To evaluate the effect of dapansutrile on dopaminergic neurons, mice were subjected to MPTP acute administration. Seven days after, when the levels of dopaminergic neurons are lower, the nigrostriatal pathway was evaluated by tyrosine hydroxylase (TH) immunostaining to assess the viability of dopaminergic neurons. Mice were perfused with 4% paraformaldehyde (Sigma-Aldrich) in PBS. Brains were removed and immersed in the same perfusion buffer overnight and then cryoprotected with 30% sucrose in 0.1M PBS at 4° C. After dehydration, samples were embedded in paraffin molds for sectioning. Coronal brain sections (4 μm thick) containing the St and SNpc were obtained and transferred to glass microscope slides. After antigen retrieval, slides were incubated with primary anti-TH antibody (1:2000, Abcam, Cambridge, UK) for 30 minutes at room temperature. TH antibody binding was detected using an anti-rabbit HRP-conjugated secondary polymer, followed by chromogenic visualization with diaminobenzidine (DAB, Cell Signaling). Hematoxylin counterstain was used to visualize nuclei. Processing of the samples was performed by Inotiv Boulder (Boulder, CO). Dopaminergic immunoreactivity in the St was calculated by measuring the integrated density by NIH ImageJ software. Stereological counting in the SNpc was performed by manual quantification of TH-positive neurons. Three sections per mice were used. Five mice were used for the sham+saline group, and seven mice were used for the MPTP group.

`CS(=O)(=O)CCC#N` [dapansutrile, 3-methanesulfonylpropionitrile] was tested. Which “levels of IL-17A in the ventral midbrain (VM) after treatment” value (IL-17A) did it give?
The value was 46 pg/µg.

What about the “levels of monomeric form of α-synuclein (17 kDa) in the ventral midbrain” value (α-synuclein) of the same compound?
Its value is “significantly reduced”.

What about the “levels of oligomeric forms of α-synuclein (150-30 kDa) in the ventral midbrain” value (α-synuclein) of the same compound?
The value was “significantly reduced”.

What about the “TH-positive fibers and neurons versus control mice” value (dopaminergic neurons) of the same compound?
Its value is “no significant changes against control mice were observed”.

What about the “density of TH-positive fibers in the striatum versus MPTP mice treated with saline” value (dopaminergic neurons) of the same compound?
Its value is “increase”.

And the “increase of TH-positive neurons in the SNpc” value (dopaminergic neurons)?
The value was 3 times.
